Laboratory results: ChEMBL document CHEMBL4725265, “Short chain α-pyrones capable of potentiating penicillin G against Pseudomonas aeruginosa” (Bioorg Med Chem Lett, 2020)
In brackets after ≈: the same amount, converted by molar mass. One block for each compound: values may come before it. Activity calls are given as the source filed them. The calls are words filed in the database; no cut-off is given here.

Legend:
Pseudomonas aeruginosa [1] = test: Potentiation of amoxicillin-induced antibacterial activity against Pseudomonas aeruginosa assessed as fold reduction in amoxicillin MIC at 50 uM after 12 to 24 hrs relative to amoxicillin MIC alone; assay type: functional; settings: time hrs 12-24
Bacillus subtilis [2] = test: Potentiation of penicillin G-induced antibacterial activity against Bacillus subtilis assessed as fold reduction in penicillin G MIC at 50 uM after 12 to 24 hrs relative to penicillin G MIC alone; assay type: functional; settings: time hrs 12-24
Pseudomonas aeruginosa [3] = test: Potentiation of penicillin G-induced antibacterial activity against Pseudomonas aeruginosa assessed as penicillin G MIC at 50 uM after 12 to 24 hrs (Rvb > 128 microg/ml); assay type: functional; settings: time hrs 12-24
Escherichia coli [4] = test: Antibacterial activity against Escherichia coli; assay type: functional, organism-based
Staphylococcus aureus [5] = test: Potentiation of amoxicillin-induced antibacterial activity against Staphylococcus aureus assessed as amoxicillin MIC at 50 uM after 12 to 24 hrs (reference value: 128 microg/ml); assay type: functional; settings: time hrs 12-24
Pseudomonas aeruginosa [6] = test: Potentiation of erythromycin-induced antibacterial activity against Pseudomonas aeruginosa assessed as erythromycin MIC at 50 uM after 12 to 24 hrs (reference value: 0.5 microg/ml); assay type: functional; settings: time hrs 12-24
Bacillus subtilis [7] = test: Potentiation of vancomycin-induced antibacterial activity against Bacillus subtilis assessed as vancomycin MIC at 50 uM after 12 to 24 hrs (reference value: 64 microg/ml); assay type: functional; settings: time hrs 12-24
Pseudomonas aeruginosa [8] = test: Antibacterial activity against Pseudomonas aeruginosa; assay type: functional, organism-based
Bacillus subtilis [9] = test: Potentiation of vancomycin-induced antibacterial activity against Bacillus subtilis assessed as fold reduction in vancomycin MIC at 50 uM after 12 to 24 hrs relative to vancomycin MIC alone; assay type: functional; settings: time hrs 12-24
Escherichia coli [10] = test: Potentiation of amoxicillin-induced antibacterial activity against Escherichia coli assessed as fold reduction in amoxicillin MIC at 50 uM after 12 to 24 hrs relative to amoxicillin MIC alone; assay type: functional; settings: time hrs 12-24
Staphylococcus aureus [11] = test: Potentiation of penicillin G-induced antibacterial activity against Staphylococcus aureus assessed as fold reduction in penicillin G MIC at 50 uM after 12 to 24 hrs relative to penicillin G MIC alone; assay type: functional; settings: time hrs 12-24
Staphylococcus aureus [12] = test: Potentiation of vancomycin-induced antibacterial activity against Staphylococcus aureus assessed as vancomycin MIC at 50 uM after 12 to 24 hrs (reference value: 0.5 microg/ml); assay type: functional; settings: time hrs 12-24
Staphylococcus aureus [13] = test: Potentiation of amoxicillin-induced antibacterial activity against Staphylococcus aureus assessed as fold reduction in amoxicillin MIC at 50 uM after 12 to 24 hrs relative to amoxicillin MIC alone; assay type: functional; settings: time hrs 12-24
Pseudomonas aeruginosa [14] = test: Potentiation of amoxicillin-induced antibacterial activity against Pseudomonas aeruginosa assessed as amoxicillin MIC at 50 uM after 12 to 24 hrs (reference value: 2 microg/ml); assay type: functional; settings: time hrs 12-24
Bacillus subtilis [15] = test: Potentiation of penicillin G-induced antibacterial activity against Bacillus subtilis assessed as penicillin G MIC at 50 uM after 12 to 24 hrs (reference value: 64 microg/ml); assay type: functional; settings: time hrs 12-24
Pseudomonas aeruginosa [16] = test: Potentiation of erythromycin-induced antibacterial activity against Pseudomonas aeruginosa assessed as fold reduction in erythromycin MIC at 50 uM after 12 to 24 hrs relative to erythromycin MIC alone; assay type: functional; settings: time hrs 12-24
Escherichia coli [17] = test: Potentiation of vancomycin-induced antibacterial activity against Escherichia coli assessed as vancomycin MIC at 50 uM after 12 to 24 hrs (reference value: 64 microg/ml); assay type: functional; settings: time hrs 12-24
Staphylococcus aureus [18] = test: Potentiation of erythromycin-induced antibacterial activity against Staphylococcus aureus assessed as erythromycin MIC at 50 uM after 12 to 24 hrs (reference value: 0.5 microg/ml); assay type: functional; settings: time hrs 12-24
Escherichia coli [19] = test: Potentiation of erythromycin-induced antibacterial activity against Escherichia coli assessed as erythromycin MIC at 50 uM after 12 to 24 hrs (reference value: 1 microg/ml); assay type: functional; settings: time hrs 12-24
Escherichia coli [20] = test: Potentiation of penicillin G-induced antibacterial activity against Escherichia coli assessed as fold reduction in penicillin G MIC at 50 uM after 12 to 24 hrs relative to penicillin G MIC alone; assay type: functional; settings: time hrs 12-24
Staphylococcus aureus [21] = test: Potentiation of penicillin G-induced antibacterial activity against Staphylococcus aureus assessed as penicillin G MIC at 50 uM after 12 to 24 hrs (reference value: […] microg/ml); assay type: functional; settings: time hrs 12-24
Escherichia coli [22] = test: Potentiation of penicillin G-induced antibacterial activity against Escherichia coli assessed as penicillin G MIC at 50 uM after 12 to 24 hrs (reference value: 64 microg/ml); assay type: functional; settings: time hrs 12-24
Bacillus subtilis [23] = test: Antibacterial activity against Bacillus subtilis; assay type: functional, organism-based
Escherichia coli [24] = test: Potentiation of vancomycin-induced antibacterial activity against Escherichia coli assessed as fold reduction in vancomycin MIC at 50 uM after 12 to 24 hrs relative to vancomycin MIC alone; assay type: functional; settings: time hrs 12-24
Escherichia coli [25] = test: Potentiation of erythromycin-induced antibacterial activity against Escherichia coli assessed as fold reduction in erythromycin MIC at 50 uM after 12 to 24 hrs relative to erythromycin MIC alone; assay type: functional; settings: time hrs 12-24
Staphylococcus aureus [26] = test: Potentiation of vancomycin-induced antibacterial activity against Staphylococcus aureus assessed as fold reduction in vancomycin MIC at 50 uM after 12 to 24 hrs relative to vancomycin MIC alone; assay type: functional; settings: time hrs 12-24
Pseudomonas aeruginosa [27] = test: Antibiofilm activity against Pseudomonas aeruginosa by crystal violet staining based assay; assay type: functional, organism-based
Escherichia coli [28] = test: Potentiation of amoxicillin-induced antibacterial activity against Escherichia coli assessed as amoxicillin MIC at 50 uM after 12 to 24 hrs (reference value: 4 microg/ml); assay type: functional; settings: time hrs 12-24
Pseudomonas aeruginosa [29] = test: Potentiation of vancomycin-induced antibacterial activity against Pseudomonas aeruginosa assessed as fold reduction in vancomycin MIC at 50 uM after 12 to 24 hrs relative to vancomycin MIC alone; assay type: functional; settings: time hrs 12-24
Pseudomonas aeruginosa [30] = test: Potentiation of vancomycin-induced antibacterial activity against Pseudomonas aeruginosa assessed as vancomycin MIC at 50 uM after 12 to 24 hrs (reference value: 1 microg/ml); assay type: functional; settings: time hrs 12-24
Bacillus subtilis [31] = test: Potentiation of erythromycin-induced antibacterial activity against Bacillus subtilis assessed as erythromycin MIC at 50 uM after 12 to 24 hrs (reference value: 0.5 microg/ml); assay type: functional; settings: time hrs 12-24
Bacillus subtilis [32] = test: Potentiation of amoxicillin-induced antibacterial activity against Bacillus subtilis assessed as amoxicillin MIC at 50 uM after 12 to 24 hrs (reference value: 64 microg/ml); assay type: functional; settings: time hrs 12-24
Staphylococcus aureus [33] = test: Antibacterial activity against Staphylococcus aureus; assay type: functional, organism-based
Pseudomonas aeruginosa [34] = test: Potentiation of penicillin G-induced antibacterial activity against Pseudomonas aeruginosa assessed as fold reduction in penicillin G MIC at 50 uM after 12 to 24 hrs relative to penicillin G MIC alone; assay type: functional; settings: time hrs 12-24
Pseudomonas aeruginosa [35] = test: Antibacterial activity against Pseudomonas aeruginosa assessed as cell wall perturbation by XTT assay; assay type: functional, organism-based
Staphylococcus aureus [36] = test: Potentiation of erythromycin-induced antibacterial activity against Staphylococcus aureus assessed as fold reduction in erythromycin MIC at 50 uM after 12 to 24 hrs relative to erythromycin MIC alone; assay type: functional; settings: time hrs 12-24
Bacillus subtilis [37] = test: Potentiation of erythromycin-induced antibacterial activity against Bacillus subtilis assessed as fold reduction in erythromycin MIC at 50 uM after 12 to 24 hrs relative to erythromycin MIC alone; assay type: functional; settings: time hrs 12-24
Bacillus subtilis [38] = test: Potentiation of amoxicillin-induced antibacterial activity against Bacillus subtilis assessed as fold reduction in amoxicillin MIC at 50 uM after 12 to 24 hrs relative to amoxicillin MIC alone; assay type: functional; settings: time hrs 12-24
Pseudomonas aeruginosa [39] = test: Antibacterial activity against Pseudomonas aeruginosa PAO1 assessed as growth inhibition by micro dilution assay; assay type: functional
Pseudomonas aeruginosa [40] = test: Antibacterial activity against Pseudomonas aeruginosa GKCW120 harboring P6 deletion mutant assessed as growth inhibition incubated for 8 hrs by micro dilution assay; assay type: functional
Pseudomonas aeruginosa [41] = test: Antibacterial activity against Pseudomonas aeruginosa GKCW120 harboring P6 deletion mutant assessed as growth inhibition incubated for 24 hrs by micro dilution assay; assay type: functional

MIC (Pseudomonas aeruginosa [3]): 0.5 µg/mL | IC50 (Escherichia coli [4]): > 100 µg/mL | MIC (Escherichia coli [4]): > 500 µM | MIC (Staphylococcus aureus [5]): 128 µg/mL | MIC (Pseudomonas aeruginosa [6]): 0.5 µg/mL | MIC (Bacillus subtilis [7]): 64 µg/mL | IC50 (Pseudomonas aeruginosa [8]): > 1000 µg/mL | MIC (Pseudomonas aeruginosa [8]): > 5000 µM | MIC (Staphylococcus aureus [12]): 0.5 µg/mL | MIC (Pseudomonas aeruginosa [14]): 2 µg/mL | MIC (Bacillus subtilis [15]): 64 µg/mL | MIC (Escherichia coli [17]): 64 µg/mL | MIC (Staphylococcus aureus [18]): 0.5 µg/mL | MIC (Escherichia coli [19]): 1 µg/mL | MIC (Staphylococcus aureus [21]): 64 µg/mL | MIC (Escherichia coli [22]): 64 µg/mL | IC50 (Bacillus subtilis [23]): > 100 µg/mL | MIC (Bacillus subtilis [23]): > 500 µM | MIC (Escherichia coli [28]): 4 µg/mL | MIC (Pseudomonas aeruginosa [30]): 1 µg/mL | MIC (Bacillus subtilis [31]): 0.5 µg/mL | MIC (Bacillus subtilis [32]): 64 µg/mL | IC50 (Staphylococcus aureus [33]): > 100 µg/mL | MIC (Staphylococcus aureus [33]): > 500 µM
Compound: CCC(=O)c1c(O)cc(CC)oc1=O
Ratio (Pseudomonas aeruginosa [1]): 1 | Ratio (Bacillus subtilis [2]): 1 | Ratio (Bacillus subtilis [9]): 1 | Ratio (Escherichia coli [10]): 1 | Ratio (Staphylococcus aureus [11]): 1 | Ratio (Staphylococcus aureus [13]): 1 | Ratio (Pseudomonas aeruginosa [16]): 1 | Ratio (Escherichia coli [20]): 1 | Ratio (Escherichia coli [24]): 1 | Ratio (Escherichia coli [25]): 1 | Ratio (Staphylococcus aureus [26]): 1 | Activity (Pseudomonas aeruginosa [27]): inactive | Ratio (Pseudomonas aeruginosa [29]): 1 | Ratio (Pseudomonas aeruginosa [34]): >256 | Activity (Pseudomonas aeruginosa [35]): inactive | Ratio (Staphylococcus aureus [36]): 1 | Ratio (Bacillus subtilis [37]): 1 | Ratio (Bacillus subtilis [38]): 1

Compound: CC1(C)S[C@@H]2[C@H](NC(=O)Cc3ccccc3)C(=O)N2[C@H]1C(=O)O [PENICILLIN G]
MIC (Pseudomonas aeruginosa [39]): > 128 µg/mL | MIC (Pseudomonas aeruginosa [40]): 0.5 µg/mL (≈ 1.5 µM) | MIC (Pseudomonas aeruginosa [41]): > 128 µg/mL

MIC (Pseudomonas aeruginosa [3]): 128 µg/mL | IC50 (Escherichia coli [4]): > 100 µg/mL | MIC (Escherichia coli [4]): > 500 µM | MIC (Staphylococcus aureus [5]): 128 µg/mL | MIC (Pseudomonas aeruginosa [6]): 0.5 µg/mL | MIC (Bacillus subtilis [7]): 64 µg/mL | IC50 (Pseudomonas aeruginosa [8]): > 1000 µg/mL | MIC (Pseudomonas aeruginosa [8]): > 5000 µM | MIC (Staphylococcus aureus [12]): 0.5 µg/mL | MIC (Pseudomonas aeruginosa [14]): 2 µg/mL | MIC (Bacillus subtilis [15]): 64 µg/mL | MIC (Escherichia coli [17]): 64 µg/mL | MIC (Staphylococcus aureus [18]): 0.5 µg/mL | MIC (Escherichia coli [19]): 1 µg/mL | MIC (Staphylococcus aureus [21]): 64 µg/mL | MIC (Escherichia coli [22]): 64 µg/mL | IC50 (Bacillus subtilis [23]): > 100 µg/mL | MIC (Bacillus subtilis [23]): > 500 µM | MIC (Escherichia coli [28]): 4 µg/mL | MIC (Pseudomonas aeruginosa [30]): 1 µg/mL | MIC (Bacillus subtilis [31]): 0.5 µg/mL | MIC (Bacillus subtilis [32]): 64 µg/mL | IC50 (Staphylococcus aureus [33]): > 100 µg/mL | MIC (Staphylococcus aureus [33]): > 500 µM
Compound: CCCc1c(O)cc(CC)oc1=O
Ratio (Pseudomonas aeruginosa [1]): 1 | Ratio (Bacillus subtilis [2]): 1 | Ratio (Bacillus subtilis [9]): 1 | Ratio (Escherichia coli [10]): 1 | Ratio (Staphylococcus aureus [11]): 1 | Ratio (Staphylococcus aureus [13]): 1 | Ratio (Pseudomonas aeruginosa [16]): 1 | Ratio (Escherichia coli [20]): 1 | Ratio (Escherichia coli [24]): 1 | Ratio (Escherichia coli [25]): 1 | Ratio (Staphylococcus aureus [26]): 1 | Activity (Pseudomonas aeruginosa [27]): inactive | Ratio (Pseudomonas aeruginosa [29]): 1 | Ratio (Pseudomonas aeruginosa [34]): >1 | Activity (Pseudomonas aeruginosa [35]): inactive | Ratio (Staphylococcus aureus [36]): 1 | Ratio (Bacillus subtilis [37]): 1 | Ratio (Bacillus subtilis [38]): 1
